Experimental data reported in ChEMBL document CHEMBL4020765, “Synthesis and α-glucosidase inhibition activity of dihydroxy pyrrolidines” (Bioorg Med Chem Lett, 2017).

species on record: Homo sapiens; test: Potency index, ratio of miglitol IC50 to compound IC50 for alpha glucosidase (unknown origin); details: not given

| Ratio IC50 | Compound |
| --- | --- |
| 3 to 4 | O=C(CCc1ccc(O)cc1)Nc1ccc(CCC(=O)N2C[C@@H](O)[C@H](O)C2)cc1 |
| 3 to 4 | Nc1ccc(CCC(=O)N2C[C@@H](O)[C@H](O)C2)cc1 |
| 3 to 4 | O=C(CCc1ccc(O)cc1)Nc1ccc(CCC(=O)N2C[C@H](O)[C@@H](O)C2)cc1 |

test system: not listed separately; test: Inhibition of alpha glucosidase (unknown origin) using PNPG as substrate preincubated for 15 to 20 mins followed by substrate addition measured after 45 to 60 mins by spectrophotometric method; details: not given; call rule not given here

| Compound | IC50 |
| --- | --- |
| O=C(/C=C/c1ccccc1C(F)(F)F)N1C[C@@H](O)[C@H](O)C1 | Active |
| O=S(=O)(c1ccc(OC(F)(F)F)cc1)N1C[C@@H](O)[C@H](O)C1 | Active |
| O=C(CCc1ccccc1F)N1C[C@H](O)[C@@H](O)C1 | Not Active |
| O=C(/C=C/c1ccsc1)N1C[C@@H](O)[C@H](O)C1 | Not Active |
| O=C(/C=C/c1ccsc1)N1C[C@H](O)[C@@H](O)C1 | Not Active |
| O=C(CCc1ccccc1F)N1C[C@@H](O)[C@H](O)C1 | Not Active |

Second part, the compound after the results:

| IC50 | Compound |
| --- | --- |
| Not Active | O=C(CCc1ccc(C(F)(F)F)cc1)Nc1ccc(CCC(=O)N2C[C@@H](O)[C@H](O)C2)cc1 |
| Not Active | O=C(/C=C/c1ccc(C(F)(F)F)cc1)Nc1ccc(CCC(=O)N2C[C@@H](O)[C@H](O)C2)cc1 |
| Not Active | O=C(/C=C/c1ccc(C(F)(F)F)cc1)Nc1ccc(CCC(=O)N2C[C@H](O)[C@@H](O)C2)cc1 |
| Not Active | CC(C)(C)OC(=O)Nc1ccc(CCC(=O)N2C[C@H](O)[C@@H](O)C2)cc1 |
| Not Active | O=C(CCc1ccccc1)N1C[C@@H](O)[C@H](O)C1 |
| Not Active | O=C(CCc1ccc([N+](=O)[O-])cc1)N1C[C@@H](O)[C@H](O)C1 |
| Not Active | O=C(CCc1ccc(C(F)(F)F)cc1)Nc1ccc(CCC(=O)N2C[C@H](O)[C@@H](O)C2)cc1 |
| Not Active | O=C(/C=C/c1ccc(O)cc1)Nc1ccc(CCC(=O)N2C[C@@H](O)[C@H](O)C2)cc1 |
| Not Active | O=C(CCc1ccccc1)N1C[C@H](O)[C@@H](O)C1 |
| Not Active | O=C(CCc1ccc(F)cc1)Nc1ccc(CCC(=O)N2C[C@H](O)[C@@H](O)C2)cc1 |
| Not Active | CC(C)(C)OC(=O)Nc1ccc(CCC(=O)N2C[C@@H](O)[C@H](O)C2)cc1 |
| Active | O=C(CCc1ccc(NS(=O)(=O)c2ccc(F)cc2)cc1)N1C[C@H](O)[C@@H](O)C1 |
| Active | O=C(CCc1ccc(NS(=O)(=O)c2ccc(F)cc2)cc1)N1C[C@@H](O)[C@H](O)C1 |
| Not Active | O=C(/C=C/c1ccc(O)cc1)Nc1ccc(CCC(=O)N2C[C@H](O)[C@@H](O)C2)cc1 |
| Not Active | O=C(CCc1ccc(F)cc1)Nc1ccc(CCC(=O)N2C[C@@H](O)[C@H](O)C2)cc1 |

same assay, conditions: read-out: IC50

| Compound | IC50 |
| --- | --- |
| Cn1c(C(=O)N2C[C@@H](O)[C@H](O)C2)cc2ccccc21 | 539 µM |
| O=C(CCc1ccsc1)N1C[C@H](O)[C@@H](O)C1 | 796 µM |
| O=S(=O)(c1ccc(O)cc1)N1C[C@@H](O)[C@H](O)C1 | 607 µM |
| Cn1cc(C(=O)N2C[C@H](O)[C@@H](O)C2)c2ccccc21 | 594 µM |
| O=C(/C=C/c1ccc(C(F)(F)F)cc1)N1C[C@H](O)[C@@H](O)C1 | 652 µM |
| OCC(CO)N[C@H]1C[C@](O)(CO)[C@@H](O)[C@H](O)[C@H]1O [VOGLIBOSE] | 325 µM |
| O=C(CCc1ccncc1)N1C[C@@H](O)[C@H](O)C1 | 966 µM |
| O=C(/C=C/c1ccc(C(F)(F)F)cc1)N1C[C@@H](O)[C@H](O)C1 | 605 µM |
| OCCN1C[C@H](O)[C@@H](O)[C@H](O)[C@H]1CO [MIGLITOL] | 462 µM |
| O=S(=O)(c1ccc(OC(F)(F)F)cc1)N1C[C@H](O)[C@@H](O)C1 | 228 µM |
| Cn1cc(C(=O)N2C[C@@H](O)[C@H](O)C2)c2ccccc21 | 531 µM |
| O=C(/C=C/c1ccccc1)N1C[C@@H](O)[C@H](O)C1 | 822 µM |
| O=C(/C=C/c1ccc(O)cc1)N1C[C@@H](O)[C@H](O)C1 | 546 µM |
| O=C(CCc1ccccc1C(F)(F)F)N1C[C@H](O)[C@@H](O)C1 | 124 µM |
| O=C(/C=C/c1ccccc1F)N1C[C@H](O)[C@@H](O)C1 | 837 µM |
| O=S(=O)(c1ccc(O)cc1)N1C[C@H](O)[C@@H](O)C1 | 453 µM |
| O=C(CCc1ccsc1)N1C[C@@H](O)[C@H](O)C1 | 723 µM |
| O=C(/C=C/c1ccccc1C(F)(F)F)N1C[C@H](O)[C@@H](O)C1 | 656 µM |
| O=C(CCc1ccccc1C(F)(F)F)N1C[C@@H](O)[C@H](O)C1 | 272 µM |
| Cn1c(C(=O)N2C[C@H](O)[C@@H](O)C2)cc2ccccc21 | 556 µM |
| O=C(/C=C/c1ccccc1)N1C[C@H](O)[C@@H](O)C1 | 747 µM |
| O=C(/C=C/c1ccccc1F)N1C[C@@H](O)[C@H](O)C1 | 862 µM |
| O=C(/C=C/c1ccc(C(F)(F)F)cc1)N1C[C@@H](O)[C@@H](O)C1 | 638 µM |
| C[C@H]1O[C@H](O[C@H]2[C@H](O)[C@@H](O)[C@@H](O[C@H]3[C@H](O)[C@@H](O)C(O)O[C@@H]3CO)O[C@@H]2CO)[C@H](O)[C@@H](O)[C@@H]1N[C@H]1C=C(CO)[C@@H](O)[C@H](O)[C@H]1O (stereo not given in full) [ACARBOSE] | 360 µM |
| O=C(/C=C/c1ccc(O)cc1)N1C[C@H](O)[C@@H](O)C1 | 506 µM |
| O=S(=O)(c1ccc(C(F)(F)F)cc1)N1C[C@H](O)[C@@H](O)C1 | 497 µM |

Second part, the compound after the results:

| IC50 | Compound |
| --- | --- |
| 104 µM | O=C(CCc1ccc(O)cc1)Nc1ccc(CCC(=O)N2C[C@@H](O)[C@H](O)C2)cc1 |
| 886 µM | O=C(CCc1ccc(C(F)(F)F)cc1)N1C[C@@H](O)[C@@H](O)C1 |
| 262 µM | Nc1ccc(CCC(=O)Nc2ccc(CCC(=O)N3C[C@H](O)[C@@H](O)C3)cc2)cc1 |
| 602 µM | O=C(CCc1ccc(O)cc1)N1C[C@H](O)[C@@H](O)C1 |
| 474 µM | O=C(Nc1ccc(CCC(=O)N2C[C@@H](O)[C@H](O)C2)cc1)c1ccsc1 |
| 302 µM | Nc1ccc(CCC(=O)N2C[C@@H](O)[C@@H](O)C2)cc1 |
| 556 µM | CC(C)(C)OC(=O)Nc1ccc(CCC(=O)N2C[C@@H](O)[C@@H](O)C2)cc1 |
| 856 µM | O=C(CCc1ccc(C(F)(F)F)cc1)N1C[C@@H](O)[C@H](O)C1 |
| 772 µM | O=C(CCc1ccc([N+](=O)[O-])cc1)N1C[C@H](O)[C@@H](O)C1 |
| 108 µM | Nc1ccc(CCC(=O)N2C[C@@H](O)[C@H](O)C2)cc1 |
| 98.5 µM | O=C(CCc1ccc(O)cc1)Nc1ccc(CCC(=O)N2C[C@H](O)[C@@H](O)C2)cc1 |
| 429 µM | O=C(CCc1ccc(NS(=O)(=O)c2ccc(C(F)(F)F)cc2)cc1)N1C[C@@H](O)[C@H](O)C1 |
| 495 µM | O=C(Nc1ccc(CCC(=O)N2C[C@H](O)[C@@H](O)C2)cc1)c1ccsc1 |
| 200 µM | O=C(/C=C/c1ccc(F)cc1)Nc1ccc(CCC(=O)N2C[C@H](O)[C@@H](O)C2)cc1 |
| 259 µM | Nc1ccc(CCC(=O)Nc2ccc(CCC(=O)N3C[C@@H](O)[C@H](O)C3)cc2)cc1 |
| 185 µM | Nc1ccc(CCC(=O)N2C[C@H](O)[C@@H](O)C2)cc1 |
| 863 µM | O=C(CCc1ccc(C(F)(F)F)cc1)N1C[C@H](O)[C@@H](O)C1 |
| 463 µM | O=C(CCc1ccc(NS(=O)(=O)c2ccc(C(F)(F)F)cc2)cc1)N1C[C@H](O)[C@@H](O)C1 |
| 657 µM | O=C(CCc1ccc(O)cc1)N1C[C@@H](O)[C@H](O)C1 |
| 114 µM | O=C(CCc1ccc(N(S(=O)(=O)c2ccc(C(F)(F)F)cc2)S(=O)(=O)c2ccc(C(F)(F)F)cc2)cc1)N1C[C@H](O)[C@@H](O)C1 |
| 111 µM | O=C(/C=C/c1ccc(F)cc1)Nc1ccc(CCC(=O)N2C[C@@H](O)[C@H](O)C2)cc1 |
| 943 µM | O=C(CCc1ccncc1)N1C[C@H](O)[C@@H](O)C1 |

biological target: not listed separately; test: Inhibition of alpha glucosidase (unknown origin) using PNPG as substrate preincubated for 10 mins followed by substrate addition measured after 30 mins; parameters: species or system Homo sapiens; details: not given

| IC50 | Compound |
| --- | --- |
| 430 µM | CO[C@H]1C=CC(=O)N1C(=O)CCc1ccccc1 |
| 7820 µM | O=C1C=C[C@H](O)N1C(=O)CCc1ccccc1 |

species on record: Homo sapiens; test: Potency index, ratio of acarbose IC50 to compound IC50 for alpha glucosidase (unknown origin); details: not given

| Ratio IC50 | Compound |
| --- | --- |
| 3 to 4 | O=C(CCc1ccc(O)cc1)Nc1ccc(CCC(=O)N2C[C@@H](O)[C@H](O)C2)cc1 |
| 3 to 4 | Nc1ccc(CCC(=O)N2C[C@@H](O)[C@H](O)C2)cc1 |
| 3 to 4 | O=C(CCc1ccc(O)cc1)Nc1ccc(CCC(=O)N2C[C@H](O)[C@@H](O)C2)cc1 |

species on record: Homo sapiens; test: Potency index, ratio of voglibose IC50 to compound IC50 for alpha glucosidase (unknown origin); details: not given

| Ratio IC50 | Compound |
| --- | --- |
| 3 to 4 | O=C(CCc1ccc(O)cc1)Nc1ccc(CCC(=O)N2C[C@@H](O)[C@H](O)C2)cc1 |
| 3 to 4 | Nc1ccc(CCC(=O)N2C[C@@H](O)[C@H](O)C2)cc1 |
| 3 to 4 | O=C(CCc1ccc(O)cc1)Nc1ccc(CCC(=O)N2C[C@H](O)[C@@H](O)C2)cc1 |
